# Results published in patent publication US6335013B1, “Methods and materials relating to CD39-like polypeptides” (Hyseq, Inc., priority 1999, dated 2002).
# T1: CD39-L4 (Homo sapiens, UniProt O75356)
# T1 construct: to allow purification of the secreted mature form of the protein; made in house; host or cells: COS-7 cells, transient transfection (pcDNA3.1); protein captured from the medium on Nickel-NTA resin
# T1 sequence (O75356 25-428): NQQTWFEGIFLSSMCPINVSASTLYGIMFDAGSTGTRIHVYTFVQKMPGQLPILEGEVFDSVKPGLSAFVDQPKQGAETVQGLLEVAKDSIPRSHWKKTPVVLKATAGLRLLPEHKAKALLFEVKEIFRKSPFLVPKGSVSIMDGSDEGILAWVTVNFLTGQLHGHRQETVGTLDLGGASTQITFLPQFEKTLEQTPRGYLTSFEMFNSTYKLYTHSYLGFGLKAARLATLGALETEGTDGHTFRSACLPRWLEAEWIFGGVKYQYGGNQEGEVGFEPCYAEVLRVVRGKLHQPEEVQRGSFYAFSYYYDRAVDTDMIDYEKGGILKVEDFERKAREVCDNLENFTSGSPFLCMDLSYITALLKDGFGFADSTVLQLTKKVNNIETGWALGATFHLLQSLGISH
# Key:
# CD39-L4 [1] = biological target: T1, CD39-L4; assay: Substrate (nucleotide) specificity of CD39-L4, inorganic phosphate release; assay type: biochemical; settings: nucleotide 1 mM; for % OF CONTROL, substrate specificity of CD39-L4: relative to ADP, buffer A with 1 mM EGTA, 2 mM CaCl2 and MgCl2
# CD39-L2 [2] = assay: Substrate (nucleotide) specificity of CD39-L2, inorganic phosphate release; assay type: biochemical, human; settings: for % OF CONTROL, substrate specificity of CD39-L2: relative to ADP, nucleotide 1 mM, buffer A with 1 mM EGTA, 3 mM CaCl2 and 3 mM MgCl2, 37° C., 30 min; for enzymatic activity relative to ADP hydrolysis: assays repeated with 15 mM ADP and 15 mM CaCl2
# CD39-L2 [3] = assay: Inhibition of CD39-L2 ADPase activity by ATPase/phosphatase inhibitors and chelators; assay type: biochemical, human; settings: concentrations as in Table 3
# CD39-L4 [4] = biological target: T1, CD39-L4; assay: Inhibition of CD39-L4 ADPase activity by ATPase/phosphatase inhibitors and chelators; assay type: biochemical; settings: concentrations as in Table 1
# [5] = ADPase and ATPase activity of CD39L4 wild type and ACR mutants, inorganic phosphate released; assay type: biochemical
# [6] = ADPase activity of CD39-L2 from transfected COS-7 cells, stimulation by divalent cations and Ca2+ titration; assay type: biochemical
# [7] = Kinetic characteristics of CD39-L2 ADP hydrolysis; assay type: biochemical
# [8] = biological target: the molecule itself; assay: Western blot of SDS-PAGE, self-association (dimer)
# [9] = 15 mM CaCl2, ADP 0.75-18 mM, 15 min, 37° C.
molecule,measurement,setting,value
Nc1ccn([C@@H]2O[C@H](COP(=O)(O)OP(=O)(O)OP(=O)(O)O)[C@@H](O)[C@H]2O)c(=O)n1 [CTP],"% OF CONTROL, substrate specificity of CD39-L4",CD39-L4 [1],26 ± 2%
same,"% OF CONTROL, substrate specificity of CD39-L2",CD39-L2 [2],44 ± 4%
"Nc1ncnc2c1ncn2[C@@H]1O[C@H](COP(=O)(O)OP(=O)(O)O)[C@@H](O)[C@H]1O [ADP, Adenosine diphosphate]",rate of ADP hydrolysis by CD39-L4 relative to ATP,CD39-L4 [1],approximately twenty-fold higher than ATP
same,"% OF CONTROL, substrate specificity of CD39-L4",CD39-L4 [1],100 ± 15%
same,"% OF CONTROL, substrate specificity of CD39-L2",CD39-L2 [2],100 ± 8%
[N-]=[N+]=[N-] [N3^−],"inhibition of CD39-L2 ADPase activity, in words",CD39-L2 [3],not inhibited
same,"inhibition of Ca2+ and Mg2+ stimulated CD39-L4 ADPase activity, in words",CD39-L4 [4],did not significantly inhibit
Nc1ccn([C@@H]2O[C@H](COP(=O)(O)OP(=O)(O)O)[C@@H](O)[C@H]2O)c(=O)n1 [CDP],"% OF CONTROL, substrate specificity of CD39-L4",CD39-L4 [1],268 ± 11%
same,enzymatic activity relative to ADP hydrolysis,CD39-L2 [2],73%
same,"% OF CONTROL, substrate specificity of CD39-L2",CD39-L2 [2],282 ± 18%
F [F^−],"inhibition of CD39-L2 ADPase activity, in words",CD39-L2 [3],partially inhibited activity
same,"inhibition of Ca2+ and Mg2+ stimulated CD39-L4 ADPase activity, in words",CD39-L4 [4],did not inhibit activity
O=c1ccn([C@@H]2O[C@H](COP(=O)(O)OP(=O)(O)OP(=O)(O)O)[C@@H](O)[C@H]2O)c(=O)[nH]1 [UTP],"% OF CONTROL, substrate specificity of CD39-L4",CD39-L4 [1],12 ± 4%
same,"% OF CONTROL, substrate specificity of CD39-L2",CD39-L2 [2],13 ± 1%
O=C(O)CN(CCN(CC(=O)O)CC(=O)O)CC(=O)O [EDTA],"inhibition of CD39-L2 ADPase activity, in words",CD39-L2 [3],inhibited CD39-L2 activity
same,"inhibition of Ca2+ and Mg2+ stimulated CD39-L4 ADPase activity, in words",CD39-L4 [4],significantly inhibited activity
C[C@@H]1O[C@@H](O[C@H]2C[C@@H](O)[C@]3(CO)[C@H]4[C@H](O)C[C@]5(C)[C@@H](C6=CC(=O)OC6)CC[C@]5(O)[C@@H]4CC[C@]3(O)C2)[C@H](O)[C@H](O)[C@H]1O [Ouabain],"inhibition of CD39-L2 ADPase activity, in words",CD39-L2 [3],not inhibited
same,"inhibition of Ca2+ and Mg2+ stimulated CD39-L4 ADPase activity, in words",CD39-L4 [4],did not significantly inhibit
Nc1nc2c(ncn2[C@@H]2O[C@H](COP(=O)(O)OP(=O)(O)OP(=O)(O)O)[C@@H](O)[C@H]2O)c(=O)[nH]1 [GTP],"% OF CONTROL, substrate specificity of CD39-L4",CD39-L4 [1],34 ± 1%
same,"% OF CONTROL, substrate specificity of CD39-L2",CD39-L2 [2],39 ± 1%
O=c1ccn([C@@H]2O[C@H](COP(=O)(O)OP(=O)(O)O)[C@@H](O)[C@H]2O)c(=O)[nH]1 [UDP],"hydrolysis of the nucleotide by CD39-L4, in words",CD39-L4 [1],very efficiently hydrolyzed
same,"% OF CONTROL, substrate specificity of CD39-L4",CD39-L4 [1],408 ± 14%
same,enzymatic activity relative to ADP hydrolysis,CD39-L2 [2],228%
same,"% OF CONTROL, substrate specificity of CD39-L2",CD39-L2 [2],303 ± 5%
Nc1ncnc2c1ncn2[C@@H]1O[C@H](COP(=O)(O)OP(=O)(O)OP(=O)(O)OP(=O)(O)OP(=O)(O)OC[C@H]2O[C@@H](n3cnc4c(N)ncnc43)[C@H](O)[C@@H]2O)[C@@H](O)[C@H]1O [Ap5A],"inhibition of CD39-L2 ADPase activity, in words",CD39-L2 [3],did not inhibit activity
same,"inhibition of Ca2+ and Mg2+ stimulated CD39-L4 ADPase activity, in words",CD39-L4 [4],did not inhibit activity
"Nc1ncnc2c1ncn2[C@@H]1O[C@H](COP(=O)(O)OP(=O)(O)OP(=O)(O)O)[C@@H](O)[C@H]1O [ATP, Adenosine triphosphate]","hydrolysis of the nucleotide by CD39-L4, in words",CD39-L4 [1],poorest substrate
same,"% OF CONTROL, substrate specificity of CD39-L4",CD39-L4 [1],5 ± 1%
same,"% OF CONTROL, substrate specificity of CD39-L2",CD39-L2 [2],16 ± 2%
CCN1C(=O)C=CC1=O [NEM],"inhibition of CD39-L2 ADPase activity, in words",CD39-L2 [3],not inhibited
same,"inhibition of Ca2+ and Mg2+ stimulated CD39-L4 ADPase activity, in words",CD39-L4 [4],did not significantly inhibit
O=C(O)CN(CCOCCOCCN(CC(=O)O)CC(=O)O)CC(=O)O [EGTA],"inhibition of CD39-L2 ADPase activity, in words",CD39-L2 [3],inhibited CD39-L2 activity
same,"inhibition of Ca2+ and Mg2+ stimulated CD39-L4 ADPase activity, in words",CD39-L4 [4],significantly inhibited activity
Nc1nc2c(ncn2[C@@H]2O[C@H](COP(=O)(O)OP(=O)(O)O)[C@@H](O)[C@H]2O)c(=O)[nH]1 [GDP],"hydrolysis of the nucleotide by CD39-L4, in words",CD39-L4 [1],very efficiently hydrolyzed
same,"% OF CONTROL, substrate specificity of CD39-L4",CD39-L4 [1],334 ± 38%
same,enzymatic activity relative to ADP hydrolysis,CD39-L2 [2],280%
same,"% OF CONTROL, substrate specificity of CD39-L2",CD39-L2 [2],338 ± 52%
"ACR III: variant CD39-L4 with substitutions D168→T, S170→Q and L175→F (protein) MATSWGTVFFMLVVSCVCSAVSHRNQQTWFEGIFLSSMCPINVSASTLYGIMFDAGSTGTRIHVYTFVQKMPGQLPILEGEVFDSVKPGLSAFVDQPKQGAETVQGLLEVAKDSIPRSHWKKTPVVLKATAGLRLLPEHKAKALLFEVKEIFRKSPFLVPKGSVSIMTGQDEGIFAWVTVNFLTGQLHGHRQETVGTLDLGGASTQITFLPQFEKTLEQTPRGYLTSFEMFNSTYKLYTHSYLGFGLKAARLATLGALETEGTDGHTFRSACLPRWLEAEWIFGGVKYQYGGNQEGEVGFEPCYAEVLRVVRGKLHQPEEVQRGSFYAFSYYYDRAVDTDMIDYEKGGILKVEDFERKAREVCDNLENFTSGSPFLCMDLSYITALLKDGFGFADSTVLQLTKKVNNIETGWALGATFHLLQSLGISH","hydrolysis of ADP, in words",[5]; ADP as substrate,hydrolyze ADP
same,"hydrolysis of ATP, in words",[5]; ATP as substrate,"neither the CD39L4 nor the CD39L4 mutant, ACR III, catalyzed hydrolysis"
same,ADPase activity compared to wild type CD39-L4,"[5]; protein from COS-7 medium, 1 mM ADP, increase due to amount of protein, not specific activity",six-fold over wild type
CD39-L2myc-His (protein) MKKGIRYETSRKTSYIFQQPQHGPWQTRMRKISNHGSLRVAKVAYPLGLCVGVFIYVAYIKWHRATATQAFFSITRAAPGARWGQQAHSPLGTAADGHEVFYGIMFDAGSTGTRVHVFQFTRPPRETPTLTHETFKAVKPGLSAYADDVEKSAQGIRELLDVAKQDIPFDFWKATPLVLKATAGLRLLPGEKAQKLLQKVKEVFKASPFLVGDDCVSIMNGTDEGVSAWITINFLTGSLKTPGGSSVGMLDLGGGSTQIAFLPRVEGTLQASPPGYLTALRMFNRTYKLYSYSYLGLGLMSARLAILGGVEGQPAKDGKELVSPCLSPSFKGEWEHAEVTYRVSGQKAAASLHELCAARVSEVLQNRVHRTEEVKHVDFYAFSYYYDLAAGVGLIDAEKGGSLVVGDFEIAAKYVCRTLETQPQSSPFSCMDLTYVSLLLQEFGFPRSKVLKLTRKIDNVETSWALGAIFHYIDSLNRQKSPAS,stimulation of ADPase activity by Ca2+,"[6]; 15 mM ADP, CaCl2 added to 15 mM",17 fold
same,stimulation of ADPase activity by Mg2+,"[6]; 15 mM ADP, MgCl2 added to 15 mM",8 fold
same,fold increase in ADPase activity over cells transfected with vector alone,"[6]; CD39-L2myc-His from COS-7 medium on Nickel-NTA resin, 1 mM ADP, no added cation",8.7 fold
same,further fold increase in ADPase activity when Ca2+ and Mg2+ added,"[6]; Ca2+ and Mg2+ added, 1 mM ADP",2-3 fold
same,effect of high Ca2+ concentration on ADPase activity,"[6]; CaCl2 2-15 mM, low substrate concentration, 37° C., 20 min",no inhibitory effect
same,K (Hill's Equation),[7]; [9],364.5
same,"cooperativity, n (Hill's Equation)",[7]; [9],2.48
same,Vmax of ADP hydrolysis,"[7]; 15 mM CaCl2, ADP 0.75-18 mM, 15 min, 37° C., 3.5 ng protein per reaction",1028 pmol/min
same,substrate at half-maximal velocity [S]0.5,[7]; [S]0.5=K^1/n,10.6 mM
"CD39L4 Cys39 to Ser mutant with a myc epitope and a 6 His tag at the C-terminus (enzyme, not shown: small tags and cut ends, also called Ser39 mutant; cys-mutant CD39L4) HRNQQTWFEGIFLSSMSPINVSASTLYGIMFDAGSTGTRIHVYTFVQKMPGQLPILEGEVFDSVKPGLSAFVDQPKQGAETVQGLLEVAKDSIPRSHWKKTPVVLKATAGLRLLPEHKAKALLFEVKEIFRKSPFLVPKGSVSIMDGSDEGILAWVTVNFLTGQLHGHRQETVGTLDLGGASTQITFLPQFEKTLEQTPRGYLTSFEMFNSTYKLYTHSYLGFGLKAARLATLGALETEGTDGHTFRSACLPRWLEAEWIFGGVKYQYGGNQEGEVGFEPCYAEVLRVVRGKLHQPEEVQRGSFYAFSYYYDRAVDTDMIDYEKGGILKVEDFERKAREVCDNLENFTSGSPFLCMDLSYITALLKDGFGFADSTVLQLTKKVNNIETGWALGATFHLLQSLGISH",binding result,[8],no binding
